Results taken from patent US12503475B2 (Centessa Pharmaceuticals (UK) Limited, priority 2020, dated 2025).
Like-named read-outs stand apart in the source and are kept apart here.

Target: T1, human orexin type 2 receptor (hOX2R) (Homo sapiens, UniProt O43614)
T1 construct: expressed in transfected cells
T1 sequence (O43614 1-444): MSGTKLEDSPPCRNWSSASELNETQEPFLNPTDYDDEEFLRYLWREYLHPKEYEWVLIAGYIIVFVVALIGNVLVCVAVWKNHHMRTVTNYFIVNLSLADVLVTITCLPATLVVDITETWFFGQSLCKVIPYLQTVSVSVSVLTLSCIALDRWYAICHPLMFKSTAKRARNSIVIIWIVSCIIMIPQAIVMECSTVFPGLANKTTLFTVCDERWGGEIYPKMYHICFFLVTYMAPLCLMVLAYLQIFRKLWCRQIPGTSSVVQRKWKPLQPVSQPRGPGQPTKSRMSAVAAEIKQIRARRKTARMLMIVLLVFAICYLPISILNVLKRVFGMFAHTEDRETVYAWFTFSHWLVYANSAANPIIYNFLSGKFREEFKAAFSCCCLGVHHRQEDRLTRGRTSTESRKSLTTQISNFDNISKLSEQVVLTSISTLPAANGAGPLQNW
Assay: Measurement of orexin type 2 receptor agonist activity (FLIPR calcium fluorescence)
Assay type: cell-based
Settings: for EC50: read-out: hOx2 pEC50 (converted); for Emax: CHO, read-out: hOx2 Emax (%)
How it was run: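 Agonism was read as fluorescence in cells stably expressing human OX2R. E. is the response at 10 μM relative to orexin A as full agonist (100%).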

[1] = CHO cells expressing hOX2R, FLIPR calcium fluorescence

Structure (SMILES)	EC50 [1] [nM]	Emax [1] [%]	hOx2 pEC50 [1]	Emax [%]
CCS(=O)(=O)N[C@@H]1[C@H](Cc2cc(F)cc(-c3cc(F)cc(F)c3)c2F)N(C(=O)[C@H]2CCO2)CC12CC2 [Compound 407, N-((6S,7S)-5-((R)-oxetane-2-carbonyl)-6-((2,3′,5,5′-tetrafluoro-[1,1′-biphenyl]-3-yl)methyl)-5-azaspiro[2.4]heptan-7-yl)ethanesulfonamide]	1 to 10	90 to 100	–	–
O=C([C@H]1CCO1)N1CC2(CC2)[C@H](NS(=O)(=O)C2(F)CC2)[C@@H]1Cc1cccc(-c2ccccc2)c1F [Compound 420, 1-fluoro-N-((6S,7S)-6-((2-fluoro-[1,1′-biphenyl]-3-yl)methyl)-5-((R)-oxetane-2-carbonyl)-5-azaspiro[2.4]heptan-7-yl)cyclopropane-1-sulfonamide]	0.0794 to 1	90 to 100	–	–
CS(=O)(=O)NC1C(Cc2cccc(-c3cc(F)cc(F)c3)c2F)N(C(=O)N2CCC2)CC12CC2 (racemic) [Compound 30, N-(5-(azetidine-1-carbonyl)-6-((2,3′,5′-trifluoro-[1,1′-biphenyl]-3-yl)methyl)-5-azaspiro[2.4]heptan-7-yl)methanesulfonamide]	0.0794 to 1	90 to 100	–	–
CS(=O)(=O)N[C@@H]1[C@H](Cc2cccc(-c3ccccc3)c2)N(C(=O)[C@H](O)CF)CC12CC2 [Compound 62, N-((6S,7S)-6-([1,1′-biphenyl]-3-ylmethyl)-5-((S)-3-fluoro-2-hydroxypropanoyl)-5-azaspiro[2.4]heptan-7-yl)methanesulfonamide]	10 to 100	90 to 100	–	–
CO[C@@H](C)CN(C)C(=O)N1CC2(CC2)[C@H](NS(C)(=O)=O)[C@@H]1Cc1cccc(-c2ccccc2)c1F [Compound 316]	1 to 10	90 to 100	–	–
C[C@H](F)C(=O)N1CC2(CC2)[C@H](NS(=O)(=O)CF)[C@@H]1Cc1cc(F)cc(-c2cccc(F)c2)c1F [Compound 393, 1-fluoro-N-((6S,7S)-5-((S)-2-fluoropropanoyl)-6-((2,3′,5-trifluoro-[1,1′-biphenyl]-3-yl)methyl)-5-azaspiro[2.4]heptan-7-yl)methanesulfonamide]	1 to 10	90 to 100	–	–
COc1c(C[C@H]2[C@@H](NS(C)(=O)=O)C3(CC3)CN2C(=O)C2CC(F)C2)cccc1-c1ccccc1 (stereo partly drawn) [Compound 339, N-((6S,7S)-5-(3-fluorocyclobutane-1-carbonyl)-6-((2-methoxy-[1,1′-biphenyl]-3-yl)methyl)-5-azaspiro[2.4]heptan-7-yl)methanesulfonamide]	–	70 to 80	*** (pEC50 ranging between 7.0 and 8.0)	–
CCS(=O)(=O)N[C@@H]1[C@H](Cc2cccc(-c3ccccc3)c2F)N(C(=O)[C@H](O)CF)CC12CC2 [Compound 178]	1 to 10	90 to 100	–	–
O=C([C@H]1CCO1)N1CC2(CC2)[C@H](NS(=O)(=O)CF)[C@@H]1Cc1cc(F)cc(-c2cc(F)ccc2F)c1F [Compound 218, 1-fluoro-N-((6S,7S)-5-((R)-oxetane-2-carbonyl)-6-((2,2′,5,5′-tetrafluoro-[1,1′-biphenyl]-3-yl)methyl)-5-azaspiro[2.4]heptan-7-yl)methanesulfonamide]	1 to 10	90 to 100	–	–
C[C@@H](F)C(=O)N1CC2(CC2)[C@H](NS(=O)(=O)CF)[C@@H]1Cc1cccc(-c2cc(F)cc(F)c2)c1F [Compound 233, 1-fluoro-N-((6S,7S)-5-((R)-2-fluoropropanoyl)-6-((2,3′,5′-trifluoro-[1,1′-biphenyl]-3-yl)methyl)-5-azaspiro[2.4]heptan-7-yl)methanesulfonamide]	10 to 100	80 to 90	–	–
O=C([C@H]1C[C@@H](F)C1)N1CC2(CC2)[C@H](NS(=O)(=O)CF)[C@@H]1Cc1cccc(-c2ccccc2)c1F [Compound 189]	1 to 10	90 to 100	–	–
CCNC(=O)N1CC2(CC2)C(NS(C)(=O)=O)C1Cc1cccc(-c2ccccc2)c1OC (racemic) [Compound 44, N-ethyl-6-((2-methoxy-[1,1′-biphenyl]-3-yl)methyl)-7-(methylsulfonamido)-5-azaspiro[2.4]heptane-5-carboxamide]	1 to 10	80 to 90	–	–
C[C@H](CF)NC(=O)N1CC2(CC2)[C@H](NS(=O)(=O)CF)[C@@H]1Cc1cc(F)cc(-c2ccccc2)c1F [Compound 375, (6S,7S)-6-((2,5-difluoro-[1,1′-biphenyl]-3-yl)methyl)-7-((fluoromethyl)sulfonamido)-N-((R)-1-fluoropropan-2-yl)-5-azaspiro[2.4]heptane-5-carboxamide]	0.0794 to 1	90 to 100	–	–
CC(C#N)NC(=O)N1CC2(CC2)[C@H](NS(C)(=O)=O)[C@@H]1Cc1cccc(-c2ccccc2)c1F (stereo partly drawn) [Compound 341, (6S,7S)-N-(1-cyanoethyl)-6-((2-fluoro-[1,1′-biphenyl]-3-yl)methyl)-7-(methylsulfonamido)-5-azaspiro[2.4]heptane-5-carboxamide]	0.0794 to 1	90 to 100	–	–
COC[C@H](C)NC(=O)N1CC2(CC2)[C@H](NS(C)(=O)=O)[C@@H]1Cc1cccc(-c2ccccc2)c1F [Compound 328, (6S,7S)-6-((2-fluoro-[1,1′-biphenyl]-3-yl)methyl)-N-((S)-1-methoxypropan-2-yl)-7-(methylsulfonamido)-5-azaspiro[2.4]heptane-5-carboxamide]	1 to 10	90 to 100	–	–
CS(=O)(=O)NC1C(Cc2cccc(-c3ccccc3)c2)N(C(=O)C(F)F)CC12CC2 (racemic) [Compound 5, N-(6-([1,1′-biphenyl]-3-ylmethyl)-5-(2,2-difluoroacetyl)-5-azaspiro[2.4]heptan-7-yl)methanesulfonamide]	100 to 1000	90 to 100	–	–
CCS(=O)(=O)NC1C(Cc2cccc(-c3ccccc3)c2)N(C(=O)N2CCC2)CC12CC2 (racemic) [Compound 3]	1 to 10	90 to 100	–	–
N#CC1(C(=O)N2CC3(CC3)[C@H](NS(=O)(=O)C(F)F)[C@@H]2Cc2cccc(-c3cc(F)cc(F)c3)c2F)CCC1 [Compound 381, N-((6S,7S)-5-(1-cyanocyclobutane-1-carbonyl)-6-((2,3′,5′-trifluoro-[1,1′-biphenyl]-3-yl)methyl)-5-azaspiro[2.4]heptan-7-yl)-1,1-difluoromethanesulfonamide]	1 to 10	90 to 100	–	–
CS(=O)(=O)N[C@@H]1[C@H](Cc2cccc(-c3ccccc3F)c2)N(C(=O)[C@H]2CCO2)CC12CC2 [Compound 40, N-((6S,7S)-6-((2′-fluoro-[1,1′-biphenyl]-3-yl)methyl)-5-((R)-oxetane-2-carbonyl)-5-azaspiro[2.4]heptan-7-yl)methanesulfonamide]	10 to 100	90 to 100	–	–
CN(C)S(=O)(=O)N[C@@H]1[C@H](Cc2cccc(-c3ccccc3)c2F)N(C(=O)N2CC(F)C2)CC12CC2 [Compound 117, N-((6S,7S)-6-((2-fluoro-[1,1′-biphenyl]-3-yl)methyl)-5-(3-fluoroazetidine-1-carbonyl)-5-azaspiro[2.4]heptan-7-yl)-N,N-dimethylsulfuric diamide]	0.0794 to 1	90 to 100	–	–
O=C(NCC(F)F)N1CC2(CC2)[C@H](NS(=O)(=O)C(F)F)[C@@H]1Cc1cccc(-c2cc(F)cc(F)c2)c1F [Compound 382, (6S,7S)-N-(2,2-difluoroethyl)-7-((difluoromethyl)sulfonamido)-6-((2,3′,5′-trifluoro-[1,1′-biphenyl]-3-yl)methyl)-5-azaspiro[2.4]heptane-5-carboxamide]	0.0794 to 1	90 to 100	–	–
O=C([C@H]1CCO1)N1CC2(CC2)[C@H](NS(=O)(=O)C(F)F)[C@@H]1Cc1cccc(-c2ccccc2)c1 [Compound 115, N-((6S,7S)-6-([1,1′-biphenyl]-3-ylmethyl)-5-((R)-oxetane-2-carbonyl)-5-azaspiro[2.4]heptan-7-yl)-1,1-difluoromethanesulfonamide]	1 to 10	–	–	90 to 100
CS(=O)(=O)N[C@@H]1[C@H](Cc2cccc(-c3cccc(Cl)c3)c2F)N(C(=O)[C@H]2CCO2)CC12CC2 [Compound 161, N-((6S,7S)-6-((3′-chloro-2-fluoro-[1,1′-biphenyl]-3-yl)methyl)-5-((R)-oxetane-2-carbonyl)-5-azaspiro[2.4]heptan-7-yl)methanesulfonamide]	1 to 10	90 to 100	–	–
C[C@]1(NC(=O)N2CC3(CC3)[C@H](NS(C)(=O)=O)[C@@H]2Cc2cccc(-c3ccccc3)c2F)CCOC1 [Compound 320, (6S,7S)-6-((2-fluoro-[1,1′-biphenyl]-3-yl)methyl)-7-(methylsulfonamido)-N-((S)-3-methyltetrahydrofuran-3-yl)-5-azaspiro[2.4]heptane-5-carboxamide]	10 to 100	90 to 100	–	–
CCCNC(=O)N1CC2(CC2)[C@H](NS(C)(=O)=O)[C@@H]1Cc1cccc(-c2ccccc2)c1OC [Compound 342, (6S,7S)-6-((2-methoxy-[1,1′-biphenyl]-3-yl)methyl)-7-(methylsulfonamido)-N-propyl-5-azaspiro[2.4]heptane-5-carboxamide]	10 to 100	70 to 80	–	–
CS(=O)(=O)NC1C(Cc2cccc(-c3ccccc3)c2)N(C(=O)N2CC(F)(F)C2)CC12CC2 (racemic) [Compound 10, N-(6-([1,1′-biphenyl]-3-ylmethyl)-5-(3,3-difluoroazetidine-1-carbonyl)-5-azaspiro[2.4]heptan-7-yl)methanesulfonamide]	100 to 1000	90 to 100	–	–
